Read-outs that look alike come from different tables or passages of the source.
How the values were obtained:
L. i. chagasi = assay type: in vivo, Leishmania infantum chagasi; settings: infected BALB/c mice
[1] = system: promastigote of Leishmania amazonensis; settings: ref Medeiros et al. 21; cited from earlier work
RAW 264.7 cells = assay type: cell-based, murine; settings: Table 1 and text, 48 h, MTT
[2] = 100 mg/kg IP once a day for 30 days
[3] = Glucantime 80 mg/Kg intra muscular once a day for 30 days

Compound: C=CCc1ccc(OC(C)=O)c(OC)c1 [Acetyl-Eugenol, O-acetyl-eugenol]
- Presence of amastigotes in spleen (immunohistochemistry, qualitative) (L. i. chagasi; [2]): could not be visualized

Compound: Cc1ccc(C(C)C)c(O)c1 [Thymol]
- EC50 against promastigote of Leishmania amazonensis [1]: 19.4 µg/mL

Compound: C=CCc1ccc(OC(=O)c2ccccc2)c(OC)c1 [Benzoyl-Eugenol, O-benzoyl-eugenol]
- Presence of amastigotes in spleen (immunohistochemistry, qualitative) (L. i. chagasi; [2]): could not be visualized

Compound: Cc1ccc(C(C)C)c(OC(=O)c2ccccc2)c1 [Benzoyl-Thymol, O-benzoyl-thymol]
- Presence of amastigotes in spleen (immunohistochemistry, qualitative) (L. i. chagasi; [2]): could not be visualized

Compound: antimoniate N-methyl glucamine [Glucantime, reference compound]
- Amount of amastigotes seen in spleen stain (L. i. chagasi; [3]): only a few amastigotes
- Presence of amastigotes in spleen (immunohistochemistry, qualitative) (L. i. chagasi; [3]): visible

Compound: CC(=O)Oc1cc(C)ccc1C(C)C [Acetyl-Thymol, O-acetyl-thymol]
- Toxicity % RAW 264.7 cells survival at 100 μg/mL (±SD) (RAW 264.7 cells): not toxic
- Amount of amastigotes seen in spleen stain (L. i. chagasi; [2]): regular amount of parasites

— PMC5106290 (Bioorganic & medicinal chemistry, 2014)
